Data reported in patent US6432946B1, “3-aminoalkylamino-2H-1,4-benzoxazines and 3-aminoalkylamino-2H-1,4-benzothiazines: dopamine receptor subtype specific ligands” (Neurogen corporation, priority 1997, dated 2002).
Counter-ions that a name gives are not always drawn.

Legend:
D2 receptors = target: T1, D2 receptors (Chlorocebus aethiops, UniProt P52702); test: Assay for D2 receptor binding activity (3H-YM 09151-2 displacement); design: species or system African Green monkey; conditions: COS cell pellets with recombinant receptor; 0.5 nM 3H-YM 09151-2; test compounds are acid addition salts
T1 construct: expressed in transfected cells; host or cells: COS cells
T1 sequence (P52702 whole entry): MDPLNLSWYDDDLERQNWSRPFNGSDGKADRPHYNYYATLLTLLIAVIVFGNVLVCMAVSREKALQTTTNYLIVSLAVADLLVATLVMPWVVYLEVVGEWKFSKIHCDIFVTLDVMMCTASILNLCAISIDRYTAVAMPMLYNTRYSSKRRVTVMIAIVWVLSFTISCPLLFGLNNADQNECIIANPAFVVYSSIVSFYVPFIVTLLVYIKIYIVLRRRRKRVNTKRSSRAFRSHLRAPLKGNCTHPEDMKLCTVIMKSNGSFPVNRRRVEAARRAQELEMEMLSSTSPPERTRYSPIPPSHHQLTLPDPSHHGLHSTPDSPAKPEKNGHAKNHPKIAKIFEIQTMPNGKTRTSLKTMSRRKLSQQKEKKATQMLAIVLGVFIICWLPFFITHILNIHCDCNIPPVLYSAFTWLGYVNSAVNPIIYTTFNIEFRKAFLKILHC
Protocol: Assay for D2 and D4 Receptor Binding Activity
Pellets of COS cells containing recombinantly produced D2 or D4 receptors from African Green monkey are used for the assays. The sample is homogenized in 100 volumes (w/vol) of 0.05 M Tris HCl buffer at 4° C. and pH 7.4. The sample is then centrifuged at 30,000× g and resuspended and rehomogenized. The sample is again centrifuged as described above and the final tissue sample is frozen until use. The tissue is resuspended 1:20 (wt/vol) in 0.05 M Tris HCl buffer containing 100 mM NaCl.
Incubations are carried out at […] and contain 0.4 ml of tissue sample, 0.5 nM ^3H-YM 09151-2 (Nemonapride, cis-5-Chloro-2-methoxy-4-(methylamino)-N-(2-methyl-2-(phenylmethyl)-3-pyrrolidinyl)benzamide)and the test compound in a total incubation of 1.0 ml. Nonspecific binding is defined as that binding found in the presence of 1 mM spiperone; without further additions, nonspecific binding is less than 20% of total binding. Binding characteristics of examples of the invention for the D2 and D4 receptor subtypes are shown in Table 2 for […].

| Compound | Ki (D2 receptors) | melting point |
| --- | --- | --- |
| c1cnc(N2CCN(CCCCNC3=Nc4ccccc4OC3)CC2)nc1 [Compound 1, 3-(1-[4-{(4-Pyrimidin-2-yl)piperazin-1-yl}]butyl) amino-2H-1,4-benzoxazine Difumarate] | > 1000 nM | – |
| c1cnc(N2CCN(CCCNC3=Nc4ccccc4SC3)CC2)nc1 [Compound 4] | > 100 nM | – |
| Fc1cnc(N2CCN(CCNC3=Nc4ccccc4OC3)CC2)nc1 (as salt: fumarate) [Compound 6, 3-(1-[2-{(4-[5-Fluoropyrimidin-2-yl])piperazin-1-yl}]ethyl)amino-2H-1,4-benzoxazine fumarate] | – | 163 to 164 °C |
| Fc1cnc(N2CCN(CCNC3=Nc4ccccc4OC3)CC2)nc1 [Compound 6, 3-(1-[2-{(4-[5-Fluoropyrimidin-2-yl])piperazin-1-yl}]ethyl)amino-2H-1,4-benzoxazine fumarate] | > 100 nM | – |
